Laboratory results published in ChEMBL document CHEMBL4196124, “Reverse Hydroxamate Inhibitors of Bone Morphogenetic Protein 1” (ACS Med Chem Lett, 2018).

Key:
[1] = target: T1, Bone morphogenetic protein 1 (Homo sapiens, UniProt P13497); assay: Inhibition of recombinant human N-terminal 6His/flag-tagged BMP1 (121 to 721 residues) expressed in CHO cells using ((5-FAM)-ELIDQYDVQRDDSSDGSLED-K(5,6 TAMRA)-CONH2) as substrate preincubated for 10 mins followed by substrate addition measured after 60 mins
T1 sequence (P13497 whole entry): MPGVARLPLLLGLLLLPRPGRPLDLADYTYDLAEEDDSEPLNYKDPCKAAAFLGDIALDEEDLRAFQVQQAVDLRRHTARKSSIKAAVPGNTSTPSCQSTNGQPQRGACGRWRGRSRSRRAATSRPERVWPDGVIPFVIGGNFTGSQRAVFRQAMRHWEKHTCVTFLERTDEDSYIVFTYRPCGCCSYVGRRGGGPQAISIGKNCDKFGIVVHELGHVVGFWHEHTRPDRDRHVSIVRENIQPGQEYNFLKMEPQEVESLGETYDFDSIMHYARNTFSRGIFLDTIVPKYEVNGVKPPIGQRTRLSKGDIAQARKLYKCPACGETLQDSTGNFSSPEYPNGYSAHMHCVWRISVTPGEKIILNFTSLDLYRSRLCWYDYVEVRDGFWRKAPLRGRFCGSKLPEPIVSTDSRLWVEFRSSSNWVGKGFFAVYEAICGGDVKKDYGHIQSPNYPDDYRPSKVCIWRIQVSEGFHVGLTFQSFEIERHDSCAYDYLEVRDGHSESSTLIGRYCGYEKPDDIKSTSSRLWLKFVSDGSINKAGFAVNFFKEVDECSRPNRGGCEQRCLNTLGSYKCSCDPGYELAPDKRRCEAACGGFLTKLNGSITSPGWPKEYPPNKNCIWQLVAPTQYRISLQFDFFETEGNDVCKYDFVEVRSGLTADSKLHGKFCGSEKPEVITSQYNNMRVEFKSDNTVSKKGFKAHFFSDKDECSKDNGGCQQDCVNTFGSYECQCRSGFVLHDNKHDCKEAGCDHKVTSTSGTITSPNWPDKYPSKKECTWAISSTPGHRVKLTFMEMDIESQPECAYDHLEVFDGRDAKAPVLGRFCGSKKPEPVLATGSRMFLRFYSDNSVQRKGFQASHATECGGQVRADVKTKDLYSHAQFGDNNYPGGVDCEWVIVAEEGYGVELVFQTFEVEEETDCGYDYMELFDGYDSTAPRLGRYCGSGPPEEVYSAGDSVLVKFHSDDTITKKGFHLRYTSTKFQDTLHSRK

[2] = target: Macrophage metalloelastase (Homo sapiens, UniProt P39900); assay: Inhibition of MMP12 (unknown origin)
Rattus norvegicus = assay: Dose normalized AUC in subcutaneously dosed rat; type: ADME, organism-based; details: in vivo, sc
Tolloid-like protein 1 = target: T2, Tolloid-like protein 1 (Homo sapiens, UniProt O43897); assay: Binding affinity to TLL1 (unknown origin) using ((5-FAM)-ELIDQYDVQRDDSSDGSLED-K(5,6 TAMRA)-CONH2 as substrate incubated for 3.5 hrs followed by substrate addition by FRET assay
T2 sequence (O43897 whole entry): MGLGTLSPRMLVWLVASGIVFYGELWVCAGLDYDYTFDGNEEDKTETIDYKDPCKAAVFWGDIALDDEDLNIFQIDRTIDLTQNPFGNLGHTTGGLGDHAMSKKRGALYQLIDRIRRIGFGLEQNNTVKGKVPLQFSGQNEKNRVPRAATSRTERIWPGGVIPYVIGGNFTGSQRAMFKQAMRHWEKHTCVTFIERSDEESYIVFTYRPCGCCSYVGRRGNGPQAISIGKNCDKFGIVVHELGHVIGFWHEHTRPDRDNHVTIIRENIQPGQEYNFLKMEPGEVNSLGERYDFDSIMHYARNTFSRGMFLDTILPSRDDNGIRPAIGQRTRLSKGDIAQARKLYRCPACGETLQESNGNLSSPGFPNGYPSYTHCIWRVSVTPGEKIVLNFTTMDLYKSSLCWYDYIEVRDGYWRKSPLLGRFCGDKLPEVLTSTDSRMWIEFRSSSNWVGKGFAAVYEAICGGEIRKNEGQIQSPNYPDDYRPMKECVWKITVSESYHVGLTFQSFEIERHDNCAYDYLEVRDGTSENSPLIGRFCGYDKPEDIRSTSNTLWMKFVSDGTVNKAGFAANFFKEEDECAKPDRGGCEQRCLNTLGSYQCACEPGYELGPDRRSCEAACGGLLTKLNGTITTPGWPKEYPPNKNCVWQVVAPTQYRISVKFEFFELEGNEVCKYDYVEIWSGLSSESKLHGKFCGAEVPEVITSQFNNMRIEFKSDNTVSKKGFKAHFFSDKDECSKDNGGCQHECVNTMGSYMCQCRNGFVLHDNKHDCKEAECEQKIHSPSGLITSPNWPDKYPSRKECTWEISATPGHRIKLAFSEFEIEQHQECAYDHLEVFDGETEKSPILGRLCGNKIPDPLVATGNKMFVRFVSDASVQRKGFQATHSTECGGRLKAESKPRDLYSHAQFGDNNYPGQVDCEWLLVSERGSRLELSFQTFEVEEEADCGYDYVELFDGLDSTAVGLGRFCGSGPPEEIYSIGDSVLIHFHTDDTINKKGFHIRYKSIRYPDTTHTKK

[3] = Mean residence time in sc dosed dog; type: ADME, organism-based, Canis lupus familiaris; details: in vivo
Tolloid-like protein 2 = target: T3, Tolloid-like protein 2 (Homo sapiens, UniProt Q9Y6L7); assay: Binding affinity to TLL2 (unknown origin) using ((5-FAM)-ELIDQYDVQRDDSSDGSLED-K(5,6 TAMRA)-CONH2 as substrate incubated for 3.5 hrs followed by substrate addition by FRET assay
T3 sequence (Q9Y6L7 whole entry): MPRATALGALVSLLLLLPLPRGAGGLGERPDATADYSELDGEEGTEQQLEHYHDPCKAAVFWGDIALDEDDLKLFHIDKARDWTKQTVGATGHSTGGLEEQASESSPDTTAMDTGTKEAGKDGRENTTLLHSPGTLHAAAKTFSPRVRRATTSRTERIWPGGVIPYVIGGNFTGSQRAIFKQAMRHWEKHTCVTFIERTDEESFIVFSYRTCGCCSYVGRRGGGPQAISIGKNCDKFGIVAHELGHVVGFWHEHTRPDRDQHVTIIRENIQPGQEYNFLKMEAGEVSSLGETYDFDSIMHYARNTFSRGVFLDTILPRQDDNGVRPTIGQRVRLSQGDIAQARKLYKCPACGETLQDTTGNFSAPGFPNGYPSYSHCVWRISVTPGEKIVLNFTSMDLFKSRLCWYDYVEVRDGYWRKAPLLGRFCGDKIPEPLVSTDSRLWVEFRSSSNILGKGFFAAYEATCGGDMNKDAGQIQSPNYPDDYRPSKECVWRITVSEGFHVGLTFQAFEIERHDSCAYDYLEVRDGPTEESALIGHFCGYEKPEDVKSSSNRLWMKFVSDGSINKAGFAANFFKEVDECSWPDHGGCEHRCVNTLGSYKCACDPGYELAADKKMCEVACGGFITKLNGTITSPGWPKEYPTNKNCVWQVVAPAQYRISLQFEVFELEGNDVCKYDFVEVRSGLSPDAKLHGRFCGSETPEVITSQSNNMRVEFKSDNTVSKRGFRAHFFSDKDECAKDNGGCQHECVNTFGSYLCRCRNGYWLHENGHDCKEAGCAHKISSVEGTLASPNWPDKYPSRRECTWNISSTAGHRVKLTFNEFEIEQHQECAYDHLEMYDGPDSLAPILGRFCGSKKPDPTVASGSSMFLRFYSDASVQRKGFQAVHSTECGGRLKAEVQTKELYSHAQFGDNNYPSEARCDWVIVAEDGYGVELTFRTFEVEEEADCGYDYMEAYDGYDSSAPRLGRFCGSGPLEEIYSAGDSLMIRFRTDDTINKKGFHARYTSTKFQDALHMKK

Canis familiaris = assay: Dose normalized AUC in subcutaneously dosed dog; type: ADME, organism-based, Canis lupus familiaris; details: in vivo, sc
[4] = Mean residence time in sc dosed rat; type: ADME, organism-based; details: in vivo
[5] = target: T1, Bone morphogenetic protein 1; assay: Binding affinity to BMP1 (unknown origin) using ((5-FAM)-ELIDQYDVQRDDSSDGSLED-K(5,6 TAMRA)-CONH2 as substrate preincubated for 3 hrs followed by substrate addition measured for 120 mins by FRET assay
[6] = target: T4, Bone morphogenetic protein 1 (Homo sapiens) (UniProt P13497); assay: Binding affinity to BMP1 (unknown origin) assessed as dissociation rate constant using ((5-FAM)-ELIDQYDVQRDDSSDGSLED-K(5,6 TAMRA)-CONH2 as substrate preincubated for 0.5 hrs followed by substrate addition measured over 4 hrs by rapid jump dilution method
T4 sequence (whole entry): T1 sequence (P13497 whole entry)

[7] = target: T4, Bone morphogenetic protein 1 (Homo sapiens); assay: Binding affinity to BMP1 (unknown origin) assessed as half life using ((5-FAM)-ELIDQYDVQRDDSSDGSLED-K(5,6 TAMRA)-CONH2 as substrate preincubated for 0.5 hrs followed by substrate addition measured over 4 hrs by rapid jump dilution method
[8] = target: T4, Bone morphogenetic protein 1 (Homo sapiens); assay: Binding affinity to BMP1 (unknown origin) assessed as association rate constant using ((5-FAM)-ELIDQYDVQRDDSSDGSLED-K(5,6 TAMRA)-CONH2 as substrate by FRET based stopped-flow spectrofluorometric method

Chain of Macrophage metalloelastase (P39900 whole entry): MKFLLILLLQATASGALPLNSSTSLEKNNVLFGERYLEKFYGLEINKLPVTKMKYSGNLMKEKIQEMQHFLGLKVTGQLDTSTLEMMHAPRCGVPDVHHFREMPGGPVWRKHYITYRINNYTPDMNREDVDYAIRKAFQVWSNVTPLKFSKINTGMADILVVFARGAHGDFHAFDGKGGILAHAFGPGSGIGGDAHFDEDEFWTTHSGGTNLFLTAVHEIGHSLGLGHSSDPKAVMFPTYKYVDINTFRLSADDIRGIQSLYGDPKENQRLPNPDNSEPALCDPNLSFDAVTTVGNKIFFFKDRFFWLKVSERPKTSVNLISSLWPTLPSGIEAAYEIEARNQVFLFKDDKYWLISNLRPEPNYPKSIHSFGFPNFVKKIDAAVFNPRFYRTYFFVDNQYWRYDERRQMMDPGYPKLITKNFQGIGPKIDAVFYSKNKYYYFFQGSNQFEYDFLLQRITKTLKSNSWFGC

IC50 [1] [nM] | IC50 [2] [nM] | SMILES | other results
1 | – | CCCCC[C@H](CN(O)C=O)C(=O)NCNC(=O)c1ccc(-c2ccc(C(=O)O)cc2)o1 | –
1250 | 1250 | CCC[C@H](CN(O)C=O)C(=O)NCNC(=O)c1cc2cccc(OC)c2o1 | –
< 1 | – | CCCCC[C@@H](C(=O)NCNC(=O)c1ccc(-c2ccc(C(=O)O)c(OCC)c2)o1)[C@@H](CC)N(O)C=O | –
< 1 | – | CCCCC[C@@H](C(=O)NCNC(=O)c1ccc(-c2cc(OCC)cc(P(=O)(O)O)c2)o1)[C@@H](CC)N(O)C=O | AUC/dose (Rattus norvegicus): 2.3 kg·h/L; Ki (Tolloid-like protein 1): 0.24 nM; MRT [3]: > 2 h; Ki (Tolloid-like protein 2): 0.26 nM; AUC/dose (Canis familiaris): 5 kg·h/L; MRT [4]: > 2 h; Ki [5]: 0.04 nM; K [6]: 0.93 h⁻¹; T1/2 [7]: 0.75 h; K [8]: 3.6e+06 M⁻¹ s⁻¹
6300 | > 10000 | COc1cccc2cc(C(=O)NCNC(=O)CCN(O)C=O)oc12 | –
< 1 | – | CCCCC[C@@H](C(=O)NCNC(=O)c1ccc(-c2cc(OCC)cc(C(=O)O)c2)o1)[C@@H](CC)N(O)C=O | –
126 | > 10000 | CCCCC[C@@H](C(=O)NCNC(=O)c1cc2cccc(OC)c2o1)[C@@H](CC)N(O)C=O | –
25 | – | CCCCC[C@H](CN(O)C=O)C(=O)NCNC(=O)c1ccc(-c2ccccc2)o1 | –
< 1 | – | CCCCC[C@@H](C(=O)NCNC(=O)c1ccc(-c2cc(OCC)cc(C(=O)N[C@@H](CC(=O)O)C(=O)O)c2)o1)[C@@H](CC)N(O)C=O | –
< 1 | – | CCCCC[C@@H](C(=O)NCNC(=O)c1ccc(-c2ccc(C(=O)N[C@@H](CC(=O)O)C(=O)O)c(OCC)c2)o1)[C@@H](CC)N(O)C=O | AUC/dose (Rattus norvegicus): 0.27 kg·h/L; Ki (Tolloid-like protein 1): 0.031 nM; MRT [3]: > 2 h; Ki (Tolloid-like protein 2): 0.039 nM; AUC/dose (Canis familiaris): 0.85 kg·h/L; MRT [4]: > 2 h; Ki [5]: 0.0068 nM; K [6]: 2.3 h⁻¹; T1/2 [7]: 0.3 h; K [8]: 5.5e+07 M⁻¹ s⁻¹
1 | – | CCCCC[C@H](CN(O)C=O)C(=O)NCNC(=O)c1ccc(-c2cccc(OCC)c2)o1 | –
< 1 | – | CCCCC[C@@H](C(=O)NCNC(=O)c1ccc(-c2ccc(P(=O)(O)O)c(OCC)c2)o1)[C@@H](CC)N(O)C=O | –
160 | 400 | CCCCC[C@H](CN(O)C=O)C(=O)NCNC(=O)c1cc2cccc(OC)c2o1 | –
4000 | > 10000 | CCCCC[C@@H](CN(O)C=O)C(=O)NCNC(=O)c1cc2cccc(OC)c2o1 | –
20 | – | CCCCC[C@H](CN(O)C=O)C(=O)NCNC(=O)c1ccc(-c2cccc(OC)c2)o1 | –
160 | 4000 | COc1cccc2cc(C(=O)NCNC(=O)[C@H](Cc3ccccc3)CN(O)C=O)oc12 | –
> 10000 | 200 | CCCCC[C@@H](C(=O)NCNC(=O)c1cc2cccc(OC)c2o1)[C@H](CC)N(O)C=O | –
8 | – | CCCCC[C@H](CN(O)C=O)C(=O)NCNC(=O)c1ccc(-c2cccc(C(=O)O)c2)o1 | –
